Measurements as given in ChEMBL document CHEMBL6071152, “Design, synthesis, and biological evaluation of oridonin derivatives as novel NLRP3 inflammasome inhibitors for the treatment of acute lung injury” (Eur J Med Chem, 2024).
Calls of active or inactive are those of the source. The rule behind the calls is not given here.

Tests used:
[1] = biological target: NLR family CARD domain-containing protein 4 (Mus musculus) (UniProt Q3UP24); assay: (§1) Inhibition of NLRC4 inflammasome activation in ICR mouse BMDM assessed as inhibition of FLA-ST-stimulated IL-1 beta expression in cell supernatant at 1 uM treated for 3 hrs with LPS followed by incubation with compound for 1 hr and later stimulated with FLA-ST for 2 hrs by western blot analysis; assay type: cell-based
NLR family CARD domain-containing protein 4 (Mus musculus), sequence (Q3UP24 whole entry, the tested form may be a part): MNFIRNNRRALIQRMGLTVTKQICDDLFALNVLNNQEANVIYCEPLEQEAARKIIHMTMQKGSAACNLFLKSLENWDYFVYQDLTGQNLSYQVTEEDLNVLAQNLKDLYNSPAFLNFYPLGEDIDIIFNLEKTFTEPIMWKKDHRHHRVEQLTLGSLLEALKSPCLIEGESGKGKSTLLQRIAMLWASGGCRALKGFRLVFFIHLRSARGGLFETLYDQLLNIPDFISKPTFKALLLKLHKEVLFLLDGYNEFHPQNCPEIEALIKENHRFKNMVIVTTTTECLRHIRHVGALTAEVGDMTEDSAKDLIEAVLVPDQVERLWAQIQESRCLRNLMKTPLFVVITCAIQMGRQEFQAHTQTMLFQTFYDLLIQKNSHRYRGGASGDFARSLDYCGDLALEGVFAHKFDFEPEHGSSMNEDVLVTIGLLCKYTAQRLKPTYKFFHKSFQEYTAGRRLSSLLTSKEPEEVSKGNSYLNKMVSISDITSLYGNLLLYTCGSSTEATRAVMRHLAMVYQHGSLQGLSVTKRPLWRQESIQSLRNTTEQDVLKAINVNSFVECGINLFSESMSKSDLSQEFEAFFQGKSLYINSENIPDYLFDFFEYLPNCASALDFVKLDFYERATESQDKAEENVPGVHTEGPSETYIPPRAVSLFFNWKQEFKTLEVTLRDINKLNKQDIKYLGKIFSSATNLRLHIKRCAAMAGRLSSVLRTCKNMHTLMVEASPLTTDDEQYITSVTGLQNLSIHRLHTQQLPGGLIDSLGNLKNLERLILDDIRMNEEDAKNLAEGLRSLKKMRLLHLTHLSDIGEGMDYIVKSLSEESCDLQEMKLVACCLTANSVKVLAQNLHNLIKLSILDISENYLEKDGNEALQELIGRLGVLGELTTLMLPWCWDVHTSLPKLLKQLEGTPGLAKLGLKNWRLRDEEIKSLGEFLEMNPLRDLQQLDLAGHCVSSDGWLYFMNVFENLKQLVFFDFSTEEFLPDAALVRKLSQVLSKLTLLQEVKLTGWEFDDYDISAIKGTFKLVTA

[2] = tested on: Mus musculus; assay: (§2) Anti-inflammatory activity against LPS-stimulated acute lung injury C57BL/6 mouse model assessed as decrease in IL-6 mRNA expression in right lung at 0.1 to 1 mg/kg, ip treated for 3 days and on third day administered with LPS at 30 mins post-compound challenge and measured after 12 hrs by RT-qPCR analysis; assay type: functional, organism-based; conditions: dose 0.1-1 mg/kg, time 3.5 day
[3] = biological target: NACHT, LRR and PYD domains-containing protein 3 (Mus musculus) (UniProt Q8R4B8); assay: Inhibition of NLRP3 inflammasome priming in ICR mouse BMDM assessed as inhibition of pro-IL-1 beta protein expression in cell lysate at 1 uM treated for 3 hrs with LPS followed by incubation with compound for 1 hr and later stimulated with ATP for 0.5 hrs by western blot analysis; assay type: subcellular; conditions: time 1.5 hrs
NACHT, LRR and PYD domains-containing protein 3 (Mus musculus), sequence (Q8R4B8 whole entry, the tested form may be a part): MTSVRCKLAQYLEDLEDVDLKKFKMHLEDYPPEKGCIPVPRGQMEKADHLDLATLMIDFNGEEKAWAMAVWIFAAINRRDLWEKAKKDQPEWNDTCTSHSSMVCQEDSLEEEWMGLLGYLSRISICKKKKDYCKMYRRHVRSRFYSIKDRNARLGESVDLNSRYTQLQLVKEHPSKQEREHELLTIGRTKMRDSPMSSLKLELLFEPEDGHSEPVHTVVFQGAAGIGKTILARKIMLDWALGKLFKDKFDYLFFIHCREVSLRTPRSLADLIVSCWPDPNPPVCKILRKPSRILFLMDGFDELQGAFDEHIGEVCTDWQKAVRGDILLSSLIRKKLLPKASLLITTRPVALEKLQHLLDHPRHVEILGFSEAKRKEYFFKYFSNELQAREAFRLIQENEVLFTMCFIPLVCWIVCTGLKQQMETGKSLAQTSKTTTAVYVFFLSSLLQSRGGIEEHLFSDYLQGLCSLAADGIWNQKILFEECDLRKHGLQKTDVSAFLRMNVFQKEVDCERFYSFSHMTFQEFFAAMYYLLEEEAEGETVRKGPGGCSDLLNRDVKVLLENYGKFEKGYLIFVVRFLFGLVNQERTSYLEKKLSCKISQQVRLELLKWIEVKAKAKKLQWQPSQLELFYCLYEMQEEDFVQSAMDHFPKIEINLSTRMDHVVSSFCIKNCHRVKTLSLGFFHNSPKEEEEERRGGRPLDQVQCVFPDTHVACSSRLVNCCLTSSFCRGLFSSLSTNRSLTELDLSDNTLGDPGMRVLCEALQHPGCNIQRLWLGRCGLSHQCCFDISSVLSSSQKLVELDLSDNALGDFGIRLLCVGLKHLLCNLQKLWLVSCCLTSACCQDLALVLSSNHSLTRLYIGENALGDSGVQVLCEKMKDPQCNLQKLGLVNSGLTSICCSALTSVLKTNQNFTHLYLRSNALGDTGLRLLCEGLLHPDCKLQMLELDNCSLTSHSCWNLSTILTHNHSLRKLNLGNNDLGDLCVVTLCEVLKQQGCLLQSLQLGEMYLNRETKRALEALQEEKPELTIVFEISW

[4] = biological target: NACHT, LRR and PYD domains-containing protein 3 (Mus musculus) (UniProt Q8R4B8); assay: Inhibition of NLRP3 inflammasome activation in ICR mouse BMDM assessed as inhibition of LPS/ATP-stimulated IL-1 beta expression in cell supernatant treated for 3 hrs with LPS followed by incubation with compound for 1 hr and later stimulated with ATP for 0.5 hrs by western blot analysis; assay type: cell-based; conditions: dose 0.2-5 µM, time 1.5 hrs
[5] = biological target: NACHT, LRR and PYD domains-containing protein 3 (Mus musculus) (UniProt Q8R4B8); assay: Inhibition of NLRP3 inflammasome activation in ICR mouse BMDM assessed as inhibition of LPS/ATP-stimulated IL-1 beta expression in cell supernatant at 1 uM treated for 3 hrs with LPS followed by incubation with compound for 1 hr and later stimulated with ATP for 0.5 hrs by western blot analysis; assay type: cell-based; conditions: time 1.5 hrs
[6] = biological target: T1, Interferon-inducible protein AIM2 (Mus musculus) (UniProt Q91VJ1); assay: as §1, with “AIM2” for “NLRC4”, “poly(dA:dT)-stimulated” for “FLA-ST-stimulated”, “cells transfected” for “stimulated”, “poly(dA:dT)” for “FLA-ST”, “4” for “2”; assay type: cell-based; conditions: time 5.0 hrs
T1 sequence (whole entry): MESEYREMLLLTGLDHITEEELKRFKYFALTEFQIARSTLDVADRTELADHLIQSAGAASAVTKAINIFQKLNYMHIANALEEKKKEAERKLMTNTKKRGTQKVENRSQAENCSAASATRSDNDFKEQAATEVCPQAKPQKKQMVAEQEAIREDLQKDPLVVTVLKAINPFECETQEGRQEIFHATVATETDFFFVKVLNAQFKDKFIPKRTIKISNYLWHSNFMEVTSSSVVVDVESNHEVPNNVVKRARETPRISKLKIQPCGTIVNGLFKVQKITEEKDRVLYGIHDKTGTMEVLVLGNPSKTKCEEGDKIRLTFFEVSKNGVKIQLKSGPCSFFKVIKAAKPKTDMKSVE

[7] = tested on: Mus musculus; assay: as §2, with “in IL-1 beta” for “in IL-6 mRNA”, “to 10” for “to 1”, “by western blot” for “by RT-qPCR”; assay type: functional, organism-based; conditions: dose 0.1-10 mg/kg, time 3.5 day
[8] = Cytotoxicity against ICR mouse BMDM assessed as reduction in cell viability incubated for 24 hrs by CCK8 assay; assay type: toxicity, cell-based; conditions: BMDM (bone marrow-derived macrophages)
[9] = biological target: NLR family CARD domain-containing protein 4 (Mus musculus) (UniProt Q3UP24); assay: Inhibition of NLRC4 inflammasome activation in ICR mouse BMDM assessed as inhibition of FLA-ST-stimulated IL-1 beta secretion in cell supernatant at 1 uM treated for 3 hrs with LPS followed by incubation with compound for 1 hr and later stimulated with FLA-ST for 2 hrs by ELISA; assay type: cell-based
[10] = biological target: NACHT, LRR and PYD domains-containing protein 3 (Mus musculus) (UniProt Q8R4B8); assay: Inhibition of NLRP3 inflammasome priming in ICR mouse BMDM assessed as inhibition of NLRP3 expression in cell supernatant at 0.2 to 5 uM pretreated with compound for 1 hr followed by stimulation with LPS for 3 hrs and later incubated with ATP for 30 mins by western blot analysis; assay type: cell-based; conditions: dose 0.2-5 µM, time 4.5 hrs
[11] = tested on: Mus musculus; assay: Anti-inflammatory activity against LPS-stimulated acute lung injury C57BL/6 mouse model assessed as decrease in TNF-alpha level in BALF at 0.1 to 1 mg/kg, ip treated for 3 days and on third day administered with LPS at 30 mins post-compound challenge and measured after 12 hrs by ELISA; assay type: functional, organism-based; conditions: dose 0.1-1 mg/kg, time 3.5 day

C=C1C(=O)[C@]23[C@H](OC(=O)Nc4ccc(F)cc4)[C@H]1CC[C@H]2[C@]12C=CCC(C)(C)[C@H]1[C@H](O)[C@@]3(O)OC2
inhibition [1]: inactive | Activity [2]: Dose-Dependent Effect | inhibition [3]: inactive | inhibition [4]: Dose-Dependent Effect | inhibition [5]: Active | inhibition [6]: inactive | Activity [7]: Active | IC50 at 24 h [8]: > 10 µM | inhibition [9]: inactive | inhibition [10]: inactive | Activity [11]: Dose-Dependent Effect
